Laboratory results reported in patent publication US9492450B2, “Inhibition of dynamin related protein 1 to promote cell death” (University of Pittsburgh—of the Commonwealth System of …, priority 2011, dated 2016).

What was measured:
MDA-MB-231 cells [1] = experiment: CyQUANT growth assay, continuous exposure; type: cell-based, human; conditions: various concentrations
Procedure: To test the effect of Drp1 inhibition on tumor cells, MDA-MB-231 cells were plated in black 96-well plates and treated with various concentrations of mdivi-1. Cell numbers were measured by CyQUANT assay every day.

[2] = test system: Drp1 wild-type (WT) and knockout (KO) SV40-transformed MEF cells; experiment: Drp1 wild-type and knockout MEF cells: cleaved caspase-3, CyQuant, OCR; type: cell-based, mouse
Procedure: FIG. 21A-F. Mdivi-1 enhances cisplatin sensitivity through Drp1-independent mechanisms. (A) Confirmation of the depletion of Drp1 in Drp1 knockout SV40-transformed MEF cells by western blot. (B) Drp1 wild-type (Drp1+/+) and knockout (Drp1−/−) MEF cells were treated as indicated for 20 h, and the number of apoptotic cells was determined by antibody recognizing cleaved caspase-3. […] (C) Drp1 wild-type and knockout MEF cells were treated with mdivi-1 for 24 h, and the cell number were determined by CyQuant assay. (D) OCR was measured after 1 h treatment of Drp1 wild-type and knockout MEF cells with DMSO or mdivi-1. (E) The combination effect of cisplatin with four analogs of mdivi-1. […]
(§1) Cell proliferation was determined using a CyQUANT Direct Cell Proliferation Assay kit (Invitrogen), the activity of caspase-3/7 was measured using a Caspase-Glo 3/7 Assay Systems (Promega, Madison, Wis.), and the MTS colorimetric survival assay was performed using the CellTiter 96 AQueous One Solution Cell Proliferation Assay kit (Promega, Madison, Wis.), according to the manufacturer's instructions. The survival fractions were calculated after setting untreated control cells at 100%. […] The cytotoxic interactions between the two drugs was determined using the method of Chou and Talalay. The combination index (CI) was determined using a computer program CompuSyn. […]

MDA-MB-231 cells [3] = experiment: Chromosome and mitotic spindle morphology in mitotic cells; type: cell-based, human; conditions: 7 hours
Procedure: The effect of Drp1 inhibition of chromosome stability was then evaluated. MDA-MB-231 cells that have been engineered to stably express a mitochondrial marker protein pAcGFP-1-mito were treated with mdivi-1 for 7 hours. Mitotic cells were selected for examining the morphology of their chromosomes and mitotic spindles. Chromosomes were visualized by DAPI, and mitotic spindles were visualized by staining cells with Alex-Fluor 555-conjugated anti-β tubulin antibody. The results are shown in FIG. 11; two representative mitotic figures are shown.

MDA-MB-231 cells [4] = experiment: DNA content flow cytometry (propidium iodide): G2/M arrest and aneuploidy; type: cell-based, human; conditions: mdivi-1 50 μM 24 and 48 h, siRNA 72 and 96 h
Procedure: Cell cycle distribution was determined by flow cytometric analysis of propidium iodide stained cells. The percentage of the cells containing a DNA content of 4N and a DNA content>4N are indicated. […] MDA-MB-231 cells were treated with either 5 μg/ml oligomycin, 5 μM FCCP, or 10 μg/ml antimycin A for 24 h. Cell cycle distribution was determined as described above.
Cell cycle distribution was determined by flow cytometric analysis of propidium iodide stained cells. The percentage of the cells containing a DNA content of 4N and >4N are indicated. Data presented in this figure are representative of three independent experiments.
For DNA content analysis, cells were trypsinized and fixed in 70% ice-cold ethanol overnight at 4° C. After fixation, the cells were washed with 1% BSA/PBS, and permeabilized using 0.25% triton-X 100 in 1% BSA/PBS. Cells were then incubated in PI solution (PBS containing 50 μg/ml of PI and 40 μg/ml of RNase A) for 30 min at room temperature.

Drp1 = conditions: as said in Cassidy-Stone et al., Dev Cell 14:193-204; cited from earlier work
[5] = test system: primary epithelial ovarian cancer (EOC) cells; experiment: Ex vivo drug sensitivity assay on primary cells from ovarian cancer patient ascites; type: cell-based, human; conditions: MTS 72 h
Procedure: FIG. 20A-C. The combination of cisplatin and mdivi-1 efficiently overcomes acquired cisplatin resistance in human ovarian cancer cells, including those from endstage cisplatin- and treatment-refractory patient. (A) The comparison of cisplatin sensitivity in ovarian cancer cells A2780 and their derivative cisplatin-resistant A2780cis cells (left panel). A2780cis cells were treated with cisplatin alone or in combination with mdivi-1 for 72 h (right panel). The survival was determined by MTS assay. (B and C) Ex vivo drug sensitivity assay using primary EOC cells isolated from ascites fluid of ovarian cancer patients (B, treatment-naïve; C, cisplatin-resistant). Apoptosis was measured by caspase-3/7 activity assay after 20 h exposure and the survival was measured by MTS assay after 72 h exposure. […]
as §1, with “Talalay.” for “Talalay. The combination index (CI) was determined using a computer program CompuSyn.”

| SMILES | growth of cells (MDA-MB-231 cells [1]) | mitochondrial respiration (OCR) in Drp1 WT and KO cells ([2]; 1 h treatment) | cell proliferation (CyQuant) in Drp1 WT and KO cells ([2]; 24 h) | chromosome stability during mitosis (MDA-MB-231 cells [3]) | G2/M cell cycle arrest and aneuploidy (MDA-MB-231 cells [4]) | G2/M cell cycle arrest and aneuploidy (MDA-MB-231 cells [4]; listed as Mdivi-1) | efficacy in inhibiting Drp1 relative to mdivi-1 (Drp1) | IC50 ([5]; EOC cells of a patient not treated with cisplatin (treatment-naïve)) | IC50 ([5]; EOC cells of a patient with clinically-defined cisplatin resistance) |
| --- | --- | --- | --- | --- | --- | --- | --- | --- | --- |
| COc1cc(-n2c(=S)[nH]c3ccccc3c2=O)c(Cl)cc1Cl [mdivi-1] | inhibited the growth of MDA-MB-231 breast cancer cells in a dose-dependent manner | inhibition | inhibition of cell proliferation | chromosomal instability | induces G2/M cell cycle arrest and aneuploidy | induced the similar G2/M cell cycle arrest and aneuploidy | full efficacy | – | – |
| N.N.[Cl][Pt][Cl] [cisplatin] | – | – | – | – | – | – | – | ~7.97 µM | ~11.6 µM |
